Experiments:
[1] = biological target: T1, Human δ-opioid (DOP) (Homo sapiens, UniProt P41143); experiment: Radioligand binding, human δ-opioid (DOP) membranes, FlashPlate, [3H]-Bremazocine; conditions: compound at 10 μM, [3H]-Bremazocine
T1 construct: purchased Perkin Elmer Biosignal
Procedure, shortened: (§1)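 Cloned human receptor membranes were coated onto FlashPlate wells and incubated with radioligand and compound (added from a 0.5 mM DMSO daughter plate) for 1 hour at room temperature in the dark. Scintillation counting gave percent inhibition, with DMSO defining total and reference ligand defining non-specific binding.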

[2] = biological target: T2, Human μ-opioid (MOP) (Homo sapiens, UniProt P35372); experiment: Radioligand binding, human μ-opioid (MOP) membranes, FlashPlate, [3H]-Naloxone; conditions: compound at 10 μM, [3H]-Naloxone
T2 construct: purchased Perkin Elmer Biosignal
Procedure, shortened: as §1

[3] = biological target: T3, Human neuropeptide Y (NPY-Y1) (Homo sapiens, UniProt P25929); experiment: Radioligand binding, human neuropeptide Y NPY-Y1 membranes, FlashPlate, [125I]-PYY; conditions: compound at 10 μM, [125I]-PYY
T3 construct: purchased Perkin Elmer Biosignal
T3 sequence (P25929 1-384): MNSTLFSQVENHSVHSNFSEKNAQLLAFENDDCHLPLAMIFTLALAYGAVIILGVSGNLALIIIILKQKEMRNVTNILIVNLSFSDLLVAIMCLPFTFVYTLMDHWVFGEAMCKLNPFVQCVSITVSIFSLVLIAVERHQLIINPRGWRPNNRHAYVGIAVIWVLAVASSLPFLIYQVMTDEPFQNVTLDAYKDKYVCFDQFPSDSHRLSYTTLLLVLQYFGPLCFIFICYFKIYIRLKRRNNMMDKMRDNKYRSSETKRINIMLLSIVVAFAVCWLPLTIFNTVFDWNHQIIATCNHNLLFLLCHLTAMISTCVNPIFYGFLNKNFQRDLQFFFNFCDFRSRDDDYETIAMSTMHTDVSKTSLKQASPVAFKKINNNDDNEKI
Procedure, shortened: as §1

[4] = biological target: T4, Human melanocortin (MC5) (Homo sapiens, UniProt P33032); experiment: Radioligand binding, human melanocortin MC5 membranes, FlashPlate, [125I]-NDP-αMSH; conditions: compound at 10 μM, [125I]-NDP-αMSH
T4 construct: purchased Perkin Elmer Biosignal
Procedure, shortened: as §1

[5] = biological target: T5, Mouse urotensin (mUR2) (Mus musculus, UniProt Q8VIH9); experiment: Radioligand binding, mouse urotensin mUR2 membranes, FlashPlate, [125I]-Urotensin II; conditions: compound at 10 μM, [125I]-Urotensin II
T5 construct: purchased Perkin Elmer Biosignal
T5 sequence (Q8VIH9 1-385): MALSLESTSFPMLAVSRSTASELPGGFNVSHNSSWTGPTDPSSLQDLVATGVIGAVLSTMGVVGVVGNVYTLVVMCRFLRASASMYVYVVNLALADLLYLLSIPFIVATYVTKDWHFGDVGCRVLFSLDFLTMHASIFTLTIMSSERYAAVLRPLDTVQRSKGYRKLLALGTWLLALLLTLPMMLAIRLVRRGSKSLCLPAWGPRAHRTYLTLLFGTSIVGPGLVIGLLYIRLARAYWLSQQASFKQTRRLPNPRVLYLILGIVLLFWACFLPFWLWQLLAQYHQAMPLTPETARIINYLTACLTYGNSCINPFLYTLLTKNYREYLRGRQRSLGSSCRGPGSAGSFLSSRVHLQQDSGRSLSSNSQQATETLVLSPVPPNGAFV
Procedure, shortened: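 Cloned mouse urotensin (mUR2) receptor membranes from Perkin Elmer Biosignal were immobilized in FlashPlate microplates using a proprietary coating. Each well got 19.5 μl buffer, then 0.5 μl of DMSO, reference ligand, or compound. Adding 5 μl of [125I]-Urotensin II, diluted to 5× final concentration in binding buffer, started binding. Plates were sealed with TopSeal-A and incubated 1 hour at room temperature in the dark. Wells were counted for 30 seconds each on a TopCount after a 60-second delay, and percentage inhibition was calculated.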

[6] = biological target: T6, Human neurokinin (NK1) (Homo sapiens, UniProt P25103); experiment: Radioligand binding, human neurokinin NK1 membranes, filtration, [125I]-Substance P; conditions: compound at 10 μM, [125I]-Substance P
T6 construct: purchased Perkin Elmer Biosignal
Procedure, shortened: (§2)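 Percent inhibition of radioligand binding measured on recombinant human membranes: NK1 with [125I]-Substance P, KOP with [3H]-Diprenorphine. Incubation 1 h at room temperature, then harvest onto 0.3% PEI-soaked filters, cold Tris-HCl pH 7.4 washes and scintillation counting; non-specific binding from reference ligand wells.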

[7] = biological target: T7, Human Melanocortin (MC4) (Homo sapiens, UniProt P32245); experiment: Radioligand binding, human melanocortin MC4 membranes, FlashPlate, [125I]-NDP-αMSH; conditions: compound at 10 μM, [125I]-NDP-αMSH
T7 construct: purchased Perkin Elmer Biosignal
Procedure, shortened: as §1

[8] = biological target: T8, Human melanin-concentrating hormone (MCH1) (Homo sapiens, UniProt Q99705); experiment: Radioligand binding, human melanin-concentrating hormone MCH1 membranes, FlashPlate, [125I]-S36057; conditions: compound at 10 μM
T8 construct: purchased Perkin Elmer Biosignal
Procedure, shortened: as §1

[9] = biological target: T9, Human κ-Opioid (KOP) (Homo sapiens, UniProt P41145); experiment: Radioligand binding, human κ-opioid (KOP) membranes, filtration, [3H]-Diprenorphine; conditions: compound at 10 μM, [3H]-Diprenorphine
T9 construct: purchased Perkin Elmer Biosignal
Procedure, shortened: as §2

[10] = biological target: T10, Human opioid (ORL1) (Homo sapiens, UniProt P41146); experiment: Radioligand binding, human opioid ORL1 membranes, FlashPlate, [125I]-Nociceptin; conditions: compound at 10 μM, [125I]-Nociceptin
T10 construct: purchased Perkin Elmer Biosignal
Procedure, shortened: as §1

[11] = biological target: T11, Human Melanocortin (MC3) (Homo sapiens, UniProt P41968); experiment: Radioligand binding, human melanocortin MC3 membranes, FlashPlate, [125I]-NDP-αMSH; conditions: compound at 10 μM, [125I]-NDP-αMSH
T11 construct: purchased Perkin Elmer Biosignal
Procedure, shortened: as §1

T2 sequence (P35372 whole entry): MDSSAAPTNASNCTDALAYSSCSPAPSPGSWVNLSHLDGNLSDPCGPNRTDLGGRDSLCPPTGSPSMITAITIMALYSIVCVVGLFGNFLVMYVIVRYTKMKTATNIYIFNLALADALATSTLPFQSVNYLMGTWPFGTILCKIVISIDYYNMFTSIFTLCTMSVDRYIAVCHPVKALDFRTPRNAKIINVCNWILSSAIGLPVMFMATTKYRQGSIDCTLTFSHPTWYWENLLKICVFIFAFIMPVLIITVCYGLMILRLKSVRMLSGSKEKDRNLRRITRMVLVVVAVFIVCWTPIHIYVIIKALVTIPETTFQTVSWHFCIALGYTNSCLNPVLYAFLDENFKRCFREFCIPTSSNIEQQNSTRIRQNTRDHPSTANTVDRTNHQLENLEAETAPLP
T8 sequence (Q99705 whole entry): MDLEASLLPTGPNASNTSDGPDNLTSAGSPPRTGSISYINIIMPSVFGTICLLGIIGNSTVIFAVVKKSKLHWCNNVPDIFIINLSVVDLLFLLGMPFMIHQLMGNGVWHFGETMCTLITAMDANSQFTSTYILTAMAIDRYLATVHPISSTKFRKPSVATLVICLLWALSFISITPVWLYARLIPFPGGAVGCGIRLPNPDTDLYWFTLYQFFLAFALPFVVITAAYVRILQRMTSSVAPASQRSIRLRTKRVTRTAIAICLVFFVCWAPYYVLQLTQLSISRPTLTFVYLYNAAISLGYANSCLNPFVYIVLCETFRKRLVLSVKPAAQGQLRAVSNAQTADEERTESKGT
T6 sequence (P25103 whole entry): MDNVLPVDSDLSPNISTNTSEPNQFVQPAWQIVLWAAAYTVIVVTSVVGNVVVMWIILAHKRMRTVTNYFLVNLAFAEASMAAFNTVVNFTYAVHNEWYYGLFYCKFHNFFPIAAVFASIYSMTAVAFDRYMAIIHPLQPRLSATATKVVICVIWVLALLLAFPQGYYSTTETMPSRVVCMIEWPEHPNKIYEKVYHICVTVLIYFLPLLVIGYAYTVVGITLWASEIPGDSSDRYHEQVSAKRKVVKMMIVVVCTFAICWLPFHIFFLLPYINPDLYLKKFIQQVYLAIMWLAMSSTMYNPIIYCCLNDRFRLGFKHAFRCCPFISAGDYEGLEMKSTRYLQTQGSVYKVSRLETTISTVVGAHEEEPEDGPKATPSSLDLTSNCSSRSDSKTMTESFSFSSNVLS
T1 sequence (P41143 whole entry): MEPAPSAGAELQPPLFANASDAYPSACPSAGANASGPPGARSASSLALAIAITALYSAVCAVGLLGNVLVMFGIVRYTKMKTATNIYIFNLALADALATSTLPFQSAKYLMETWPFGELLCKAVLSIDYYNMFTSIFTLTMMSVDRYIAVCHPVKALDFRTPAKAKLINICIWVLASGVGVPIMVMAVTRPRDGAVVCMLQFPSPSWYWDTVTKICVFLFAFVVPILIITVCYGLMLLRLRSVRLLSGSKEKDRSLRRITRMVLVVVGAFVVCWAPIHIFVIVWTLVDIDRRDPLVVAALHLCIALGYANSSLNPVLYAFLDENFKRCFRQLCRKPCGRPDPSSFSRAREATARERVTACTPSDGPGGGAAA
T4 sequence (P33032 whole entry): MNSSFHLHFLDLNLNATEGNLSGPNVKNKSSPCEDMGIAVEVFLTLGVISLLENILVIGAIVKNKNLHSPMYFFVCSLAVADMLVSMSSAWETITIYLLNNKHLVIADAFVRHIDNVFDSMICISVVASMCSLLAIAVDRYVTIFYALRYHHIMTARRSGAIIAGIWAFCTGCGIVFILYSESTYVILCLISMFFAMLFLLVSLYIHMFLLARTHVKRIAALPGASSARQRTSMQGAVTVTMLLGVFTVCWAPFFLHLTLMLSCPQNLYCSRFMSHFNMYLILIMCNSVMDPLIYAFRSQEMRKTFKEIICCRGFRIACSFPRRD
T7 sequence (P32245 whole entry): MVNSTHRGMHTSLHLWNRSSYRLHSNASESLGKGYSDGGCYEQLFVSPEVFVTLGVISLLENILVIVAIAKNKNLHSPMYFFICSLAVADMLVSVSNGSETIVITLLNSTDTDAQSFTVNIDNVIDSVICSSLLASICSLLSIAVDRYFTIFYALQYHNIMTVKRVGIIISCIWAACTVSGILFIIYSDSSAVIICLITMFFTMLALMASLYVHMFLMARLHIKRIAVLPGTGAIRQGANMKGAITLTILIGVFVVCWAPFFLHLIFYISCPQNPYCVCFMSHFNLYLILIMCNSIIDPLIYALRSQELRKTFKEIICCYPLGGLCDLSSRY
T11 sequence (P41968 whole entry): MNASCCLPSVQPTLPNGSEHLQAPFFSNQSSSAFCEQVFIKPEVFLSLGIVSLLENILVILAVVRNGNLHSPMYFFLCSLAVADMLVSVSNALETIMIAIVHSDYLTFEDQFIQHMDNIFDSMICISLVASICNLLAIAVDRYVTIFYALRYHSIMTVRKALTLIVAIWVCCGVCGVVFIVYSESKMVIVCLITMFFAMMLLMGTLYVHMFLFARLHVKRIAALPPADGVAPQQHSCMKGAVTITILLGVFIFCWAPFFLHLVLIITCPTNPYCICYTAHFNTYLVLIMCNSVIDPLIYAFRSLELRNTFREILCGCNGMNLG
T9 sequence (P41145 whole entry): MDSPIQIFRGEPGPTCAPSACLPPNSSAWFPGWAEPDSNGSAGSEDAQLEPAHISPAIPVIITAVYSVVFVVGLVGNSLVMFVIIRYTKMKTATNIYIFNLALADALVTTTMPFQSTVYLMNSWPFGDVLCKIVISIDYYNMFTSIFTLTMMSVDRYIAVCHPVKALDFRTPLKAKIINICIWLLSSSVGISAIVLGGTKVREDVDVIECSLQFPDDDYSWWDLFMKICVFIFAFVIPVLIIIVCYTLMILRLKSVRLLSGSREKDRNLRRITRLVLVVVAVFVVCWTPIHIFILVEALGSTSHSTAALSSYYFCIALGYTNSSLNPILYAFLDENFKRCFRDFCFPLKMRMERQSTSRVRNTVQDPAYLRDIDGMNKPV
T10 sequence (P41146 whole entry): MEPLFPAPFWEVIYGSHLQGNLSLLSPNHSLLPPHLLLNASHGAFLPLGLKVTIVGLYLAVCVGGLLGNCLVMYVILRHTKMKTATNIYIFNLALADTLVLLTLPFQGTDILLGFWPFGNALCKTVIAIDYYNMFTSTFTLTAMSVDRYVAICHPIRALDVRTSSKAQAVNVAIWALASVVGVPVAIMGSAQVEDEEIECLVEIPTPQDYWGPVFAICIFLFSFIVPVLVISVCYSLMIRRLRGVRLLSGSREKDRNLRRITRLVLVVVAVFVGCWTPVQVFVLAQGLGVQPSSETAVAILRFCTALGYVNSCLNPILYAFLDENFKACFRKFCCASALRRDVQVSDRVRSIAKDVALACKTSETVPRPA

With `NCCCC(=O)NC1C(OCc2ccc(Cl)cc2)OC(COCc2ccc(Cl)cc2)C(O)C1OCc1ccccc1` (single isomer, unassigned) [compound 506] the “A1: inhibition of radioligand binding, human δ-opioid (DOP)” value [1] was “− (“−” indicates less than 50% inhibition at 10 μM)”, the “A7: inhibition of radioligand binding, human μ-opioid (MOP)” value ([2]; 10 µM) was “− (“−” indicates less than 50% inhibition at 10 μM)” and the “A9: inhibition of radioligand binding, human neuropeptide Y (NPY-Y1)” value [3] was “− (“−” indicates less than 50% inhibition at 10 μM)”. The “A5: inhibition of radioligand binding, human melanocortin (MC5)” value [4] was “+ (“+” indicates greater than 50% inhibition at 10 μM)”, the “A11: inhibition of radioligand binding, mouse urotensin (mUR2)” value [5] was “− (“−” indicates less than 50% inhibition at 10 μM)” and the “A8: inhibition of radioligand binding, human neurokinin (NK1)” value [6] was “+ (“+” indicates greater than 50% inhibition at 10 μM)”. The “A4: inhibition of radioligand binding, human melanocortin (MC4)” value [7] was “− (“−” indicates less than 50% inhibition at 10 μM)”, the “A6: inhibition of radioligand binding, human melanin-concentrating hormone (MCH1)” value ([8]; [125I]-S36057) was “− (“−” indicates less than 50% inhibition at 10 μM)” and the “A2: inhibition of radioligand binding, human κ-opioid (KOP)” value [9] was “− (“−” indicates less than 50% inhibition at 10 μM)”. For the same molecule, the “A10: inhibition of radioligand binding, human opioid (ORL1)” value ([10]; 10 µM) was “+ (“+” indicates greater than 50% inhibition at 10 μM)” and the “A3: inhibition of radioligand binding, human melanocortin (MC3)” value [11] was “− (“−” indicates less than 50% inhibition at 10 μM)”.
With `COCC1OC(OCc2ccc(Cl)cc2)C(NC(=O)CCN)C(OCc2ccccc2)C1O` (stereo not shown) [compound 195] the “A1: inhibition of radioligand binding” value ([1]; FlashPlate) was “− (“−” indicates less than 50% inhibition at 10 μM)”, the “A7: inhibition of radioligand binding” value ([2]; FlashPlate) was “− (“−” indicates less than 50% inhibition at 10 μM)” and the “A9: inhibition of radioligand binding” value ([3]; FlashPlate) was “− (“−” indicates less than 50% inhibition at 10 μM)”. The “A5: inhibition of radioligand binding” value ([4]; FlashPlate) was “− (“−” indicates less than 50% inhibition at 10 μM)”, the “A11: inhibition of radioligand binding” value ([5]; FlashPlate) was “− (“−” indicates less than 50% inhibition at 10 μM)” and the “A8: inhibition of radioligand binding” value ([6]; filtration) was “+ (“+” indicates greater than 50% inhibition at 10 μM)”. For the same molecule, the “A4: inhibition of radioligand binding” value ([7]; FlashPlate) was “− (“−” indicates less than 50% inhibition at 10 μM)”, the “A6: inhibition of radioligand binding” value ([8]; [125I]-S36057, FlashPlate) was “− (“−” indicates less than 50% inhibition at 10 μM)” and the “A2: inhibition of radioligand binding” value ([9]; filtration) was “− (“−” indicates less than 50% inhibition at 10 μM)”. The “A10: inhibition of radioligand binding” value ([10]; FlashPlate) was “− (“−” indicates less than 50% inhibition at 10 μM)” and the “A3: inhibition of radioligand binding” value ([11]; FlashPlate) was “− (“−” indicates less than 50% inhibition at 10 μM)”.
For `CO[C@H]1[C@H](O)[C@@H](COCc2ccc3ccccc3c2)OC(OCc2ccc(Cl)cc2)[C@@H]1NC(=O)CCCNC(=N)N` (stereo partly shown) [compound 100], the “A1 radioligand binding, percentage inhibition” value [1] was “− (“−” indicates less than 50% inhibition at 10 μM)”, the “A7 radioligand binding, percentage inhibition” value [2] was “+ (“+” indicates greater than 50% inhibition at 10 μM)” and the “A9 radioligand binding, percentage inhibition” value [3] was “− (“−” indicates less than 50% inhibition at 10 μM)”. For the same molecule, the “A5 radioligand binding, percentage inhibition” value [4] was “+ (“+” indicates greater than 50% inhibition at 10 μM)”, the “A11 radioligand binding, percentage inhibition” value [5] was “− (“−” indicates less than 50% inhibition at 10 μM)” and the “A8 radioligand binding, percentage inhibition” value [6] was “+ (“+” indicates greater than 50% inhibition at 10 μM)”. For the same molecule, the “A4 radioligand binding, percentage inhibition” value [7] was “+ (“+” indicates greater than 50% inhibition at 10 μM)”, the “A6 radioligand binding, percentage inhibition” value ([8]; [125I]-S36057) was “+ (“+” indicates greater than 50% inhibition at 10 μM)” and the “A2 radioligand binding, percentage inhibition” value [9] was “− (“−” indicates less than 50% inhibition at 10 μM)”. For the same molecule, the “A10 radioligand binding, percentage inhibition” value [10] was “+ (“+” indicates greater than 50% inhibition at 10 μM)” and the “A3 radioligand binding, percentage inhibition” value [11] was “+ (“+” indicates greater than 50% inhibition at 10 μM)”.
With `CSC1OC(COCc2ccc3ccccc3c2)C(O)C(OCc2ccc3ccccc3c2)C1NC(=O)CN` (stereo not shown) [compound 316] the “A1: inhibition of radioligand binding, human δ-opioid (DOP)” value [1] was “− (“−” indicates less than 50% inhibition at 10 μM)”, the “A7: inhibition of radioligand binding, human μ-opioid (MOP)” value [2] was “− (“−” indicates less than 50% inhibition at 10 μM)” and the “A9: inhibition of radioligand binding, human neuropeptide Y (NPY-Y1)” value [3] was “− (“−” indicates less than 50% inhibition at 10 μM)”. The “A5: inhibition of radioligand binding, human melanocortin (MC5)” value [4] was “− (“−” indicates less than 50% inhibition at 10 μM)”, the “A11: inhibition of radioligand binding, mouse urotensin (mUR2)” value [5] was “− (“−” indicates less than 50% inhibition at 10 μM)” and the “A8: inhibition of radioligand binding, human neurokinin (NK1)” value [6] was “+ (“+” indicates greater than 50% inhibition at 10 μM)”. For the same molecule, the “A4: inhibition of radioligand binding, human melanocortin (MC4)” value [7] was “+ (“+” indicates greater than 50% inhibition at 10 μM)”, the “A6: inhibition of radioligand binding, human melanin-concentrating hormone (MCH1)” value ([8]; [125I]-S36057) was “− (“−” indicates less than 50% inhibition at 10 μM)” and the “A2: inhibition of radioligand binding, human κ-opioid (KOP)” value [9] was “− (“−” indicates less than 50% inhibition at 10 μM)”. For the same molecule, the “A10: inhibition of radioligand binding, human opioid (ORL1)” value [10] was “− (“−” indicates less than 50% inhibition at 10 μM)” and the “A3: inhibition of radioligand binding, human melanocortin (MC3)” value [11] was “− (“−” indicates less than 50% inhibition at 10 μM)”.
In the case of `NCCCC(=O)NC1C(OCc2ccc3ccccc3c2)OC(COCc2ccc3ccccc3c2)C(O)C1OCc1ccccc1` (single isomer, unassigned) [compound 465], the “A1: inhibition of radioligand binding” value ([1]; human DOP membranes) is reported as “− (“−” indicates less than 50% inhibition at 10 μM)”, the “A7: inhibition of radioligand binding” value ([2]; human MOP membranes) is reported as “− (“−” indicates less than 50% inhibition at 10 μM)” and the “A9: inhibition of radioligand binding” value ([3]; human NPY-Y1 membranes) is reported as “− (“−” indicates less than 50% inhibition at 10 μM)”. For the same molecule, the “A5: inhibition of radioligand binding” value ([4]; human MC5 membranes) was “+ (“+” indicates greater than 50% inhibition at 10 μM)”, the “A11: inhibition of radioligand binding” value ([5]; mouse mUR2 membranes) was “− (“−” indicates less than 50% inhibition at 10 μM)” and the “A8: inhibition of radioligand binding” value ([6]; human NK1 membranes) was “+ (“+” indicates greater than 50% inhibition at 10 μM)”. For the same molecule, the “A4: inhibition of radioligand binding” value ([7]; human MC4 membranes, 10 µM) was “− (“−” indicates less than 50% inhibition at 10 μM)”, the “A6: inhibition of radioligand binding” value ([8]; [125I]-S36057, human MCH1 membranes, 10 µM) was “− (“−” indicates less than 50% inhibition at 10 μM)” and the “A2: inhibition of radioligand binding” value ([9]; human KOP membranes) was “− (“−” indicates less than 50% inhibition at 10 μM)”. For the same molecule, the “A10: inhibition of radioligand binding” value ([10]; human ORL1 membranes, 10 µM) was “− (“−” indicates less than 50% inhibition at 10 μM)” and the “A3: inhibition of radioligand binding” value ([11]; human MC3 membranes, 10 µM) was “− (“−” indicates less than 50% inhibition at 10 μM)”.

From US20080009418A1, “Selective Inhibitors” (Alchemia LTD., priority 2004, published 2008)
